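Dose response: 5 concentrations. Exposure: 48 h. Format: 96-well plates. Endpoint: linear interpolation; highest concentration if not reached. The concentration for full growth arrest is given as TGI.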
Legend:
Experiment in all cases: NCI anticancer screen, dose series, 48 h
HCC-2998 colon = tested on: HCC-2998 colon
NCI-H23 lung = tested on: NCI-H23 lung
SK-MEL-2 melanoma = tested on: SK-MEL-2 melanoma
MALME-3M melanoma = tested on: MALME-3M melanoma
HOP-18 NSCLC = tested on: HOP-18 NSCLC
A498 renal = tested on: A498 renal
786-0 renal = tested on: 786-0 renal
ACHN renal = tested on: ACHN renal
SW-620 colon = tested on: SW-620 colon
MOLT-4 leukemia = tested on: MOLT-4 leukemia
UO-31 renal = tested on: UO-31 renal
CAKI-1 renal = tested on: CAKI-1 renal
M19-MEL melanoma = tested on: M19-MEL melanoma
SF-295 CNS = tested on: SF-295 CNS
OVCAR-8 ovarian = tested on: OVCAR-8 ovarian
COLO 205 colon = tested on: COLO 205 colon
SK-MEL-5 melanoma = tested on: SK-MEL-5 melanoma
SK-OV-3 ovarian = tested on: SK-OV-3 ovarian
DLD-1 colon = tested on: DLD-1 colon
IGROV1 ovarian = tested on: IGROV1 ovarian
RPMI-8226 leukemia = tested on: RPMI-8226 leukemia
HCT-116 colon = tested on: HCT-116 colon
RXF-631 renal = tested on: RXF-631 renal
CCRF-CEM leukemia = tested on: CCRF-CEM leukemia
A549 NSCLC = tested on: A549 NSCLC
KM20L2 colon = tested on: KM20L2 colon
SK-MEL-28 melanoma = tested on: SK-MEL-28 melanoma
LXFL 529 NSCLC = tested on: LXFL 529 NSCLC
HT29 colon = tested on: HT29 colon
OVCAR-3 ovarian = tested on: OVCAR-3 ovarian
HOP-92 NSCLC = tested on: HOP-92 NSCLC
OVCAR-5 ovarian = tested on: OVCAR-5 ovarian
UACC-62 melanoma = tested on: UACC-62 melanoma
DMS 273 small cell lung = tested on: DMS 273 small cell lung
OVCAR-4 ovarian = tested on: OVCAR-4 ovarian
EKVX NSCLC = tested on: EKVX NSCLC
SNB-19 CNS = tested on: SNB-19 CNS
NCI-H522 lung = tested on: NCI-H522 lung
SN12C renal = tested on: SN12C renal
KM12 colon = tested on: KM12 colon
DMS 114 small cell lung = tested on: DMS 114 small cell lung
NCI-H460 lung = tested on: NCI-H460 lung
NCI-H226 lung = tested on: NCI-H226 lung
SNB-75 CNS = tested on: SNB-75 CNS
SNB-78 CNS = tested on: SNB-78 CNS
XF 498 CNS = tested on: XF 498 CNS
SF-539 CNS = tested on: SF-539 CNS
HOP-62 NSCLC = tested on: HOP-62 NSCLC
M14 melanoma = tested on: M14 melanoma
SR leukemia = tested on: SR leukemia
HCT-15 colon = tested on: HCT-15 colon
RXF 393 renal = tested on: RXF 393 renal
HL-60(TB) leukemia = tested on: HL-60(TB) leukemia
LOX IMVI melanoma = tested on: LOX IMVI melanoma
U251 CNS = tested on: U251 CNS
K-562 leukemia = tested on: K-562 leukemia
UACC-257 melanoma = tested on: UACC-257 melanoma
TK-10 renal = tested on: TK-10 renal

Question: CCCCCCCC(=O)OCC1OC(OC)C(NC(=O)N(CCCl)N=O)C(O)C1O (stereo not drawn) was tested. Which TGI (HCC-2998 colon) did it give?
Answer: 30.3 µM

Question: What about the TGI (NCI-H23 lung) of the same compound?
Answer: 29.4 µM

Question: And the TGI (SK-MEL-2 melanoma)?
Answer: > 57.2 µM

Question: And the TGI (MALME-3M melanoma)?
Answer: 28.5 µM

Question: What about the TGI (HOP-18 NSCLC) of the same compound?
Answer: 72.3 µM

Question: What about the TGI (A498 renal) of the same compound?
Answer: 56.8 µM

Question: And the TGI (786-0 renal)?
Answer: 22.7 µM

Question: What about the TGI (ACHN renal) of the same compound?
Answer: > 100 µM

Question: What about the TGI (SW-620 colon) of the same compound?
Answer: 18.9 µM

Question: And the TGI (MOLT-4 leukemia)?
Answer: 36.1 µM

Question: And the TGI (UO-31 renal)?
Answer: 45.9 µM

Question: And the TGI (CAKI-1 renal)?
Answer: 32.6 µM

Question: What about the TGI (M19-MEL melanoma) of the same compound?
Answer: 49.2 µM

Question: And the TGI (SF-295 CNS)?
Answer: 33 µM

Question: What about the TGI (OVCAR-8 ovarian) of the same compound?
Answer: 57.2 µM

Question: And the TGI (COLO 205 colon)?
Answer: 30.8 µM

Question: What about the TGI (SK-MEL-5 melanoma) of the same compound?
Answer: 35.8 µM

Question: And the TGI (SK-OV-3 ovarian)?
Answer: 97.1 µM

Question: What about the TGI (DLD-1 colon) of the same compound?
Answer: 28.6 µM

Question: What about the TGI (IGROV1 ovarian) of the same compound?
Answer: 67.1 µM

Question: And the TGI (RPMI-8226 leukemia)?
Answer: 53.1 µM

Question: What about the TGI (HCT-116 colon) of the same compound?
Answer: 15 µM

Question: What about the TGI (RXF-631 renal) of the same compound?
Answer: 19 µM

Question: What about the TGI (CCRF-CEM leukemia) of the same compound?
Answer: 40.5 µM

Question: What about the TGI (A549 NSCLC) of the same compound?
Answer: > 72.3 µM

Question: And the TGI (KM20L2 colon)?
Answer: > 59.2 µM

Question: And the TGI (SK-MEL-28 melanoma)?
Answer: > 100 µM

Question: What about the TGI (LXFL 529 NSCLC) of the same compound?
Answer: 42 µM

Question: And the TGI (HT29 colon)?
Answer: 50.3 µM

Question: And the TGI (OVCAR-3 ovarian)?
Answer: 47.7 µM

Question: What about the TGI (HOP-92 NSCLC) of the same compound?
Answer: 9.96 µM

Question: What about the TGI (OVCAR-5 ovarian) of the same compound?
Answer: 97.5 µM

Question: What about the TGI (UACC-62 melanoma) of the same compound?
Answer: 14 µM

Question: And the TGI (DMS 273 small cell lung)?
Answer: 15.9 µM

Question: What about the TGI (OVCAR-4 ovarian) of the same compound?
Answer: > 100 µM

Question: What about the TGI (EKVX NSCLC) of the same compound?
Answer: > 83.9 µM

Question: What about the TGI (SNB-19 CNS) of the same compound?
Answer: > 100 µM

Question: And the TGI (NCI-H522 lung)?
Answer: 16 µM

Question: What about the TGI (SN12C renal) of the same compound?
Answer: 26.6 µM

Question: And the TGI (KM12 colon)?
Answer: 27.7 µM

Question: What about the TGI (DMS 114 small cell lung) of the same compound?
Answer: 29.6 µM

Question: What about the TGI (NCI-H460 lung) of the same compound?
Answer: > 39.2 µM

Question: And the TGI (NCI-H226 lung)?
Answer: 42.1 µM

Question: And the TGI (SNB-75 CNS)?
Answer: 53.3 µM

Question: And the TGI (SNB-78 CNS)?
Answer: 79.6 µM

Question: What about the TGI (XF 498 CNS) of the same compound?
Answer: 30.6 µM

Question: What about the TGI (SF-539 CNS) of the same compound?
Answer: 16.5 µM

Question: What about the TGI (HOP-62 NSCLC) of the same compound?
Answer: 23.1 µM

Question: What about the TGI (M14 melanoma) of the same compound?
Answer: 21.6 µM

Question: And the TGI (SR leukemia)?
Answer: 23.9 µM

Question: What about the TGI (HCT-15 colon) of the same compound?
Answer: 15.5 µM

Question: And the TGI (RXF 393 renal)?
Answer: 34.3 µM

Question: What about the TGI (HL-60(TB) leukemia) of the same compound?
Answer: 22.3 µM

Question: What about the TGI (LOX IMVI melanoma) of the same compound?
Answer: 23.8 µM

Question: What about the TGI (U251 CNS) of the same compound?
Answer: > 70.1 µM

Question: What about the TGI (K-562 leukemia) of the same compound?
Answer: > 58 µM

Question: What about the TGI (UACC-257 melanoma) of the same compound?
Answer: 41.3 µM

Question: And the TGI (TK-10 renal)?
Answer: 58 µM

From PubChem BioAssay (NCI)
